Source: patent US9278065B2, “Delivery systems for solubilising water-insoluble pharmaceutical active ingredients” (EMS S/A, priority 2007, dated 2016)

Assay: Particle size (Z-average) of the formulation mixed with water 1:50
Type: physicochemical
Procedure: The formulation according to present invention is prepared when the non-ionic surfactant mixture is thoroughly mixed with the solution of the active ingredient in the water-miscible organic solvent/co-solvent.
The present invention will now be illustrated by the following examples. It is understood, however, that such examples are provided for illustration only, and the invention is not intended to be limited by the examples. The formulation based on the system employed in the examples can be formed by any suitable method known in the art. In the examples the formulation was mixed with water at a ratio of 1:50 formulation: water to generate the system and measure the particle size formed in water. The particle size was measured by the method described in Pharmacopea Forum—2001 vol 27 (4) page 2724.

Row | Z-average (0.5% tacrolimus in ethanol with DEGEE / PEG Oleate / polyethoxylated castor oil as per Table 3, diluted 1:50 in water) | increase of particle Z-average (10% tioconazole formulation omitting DEGEE, compared with complete formulation containing DEGEE, PEG Oleate, polyethoxylated castor oil) | particle size of emulsion (10% tioconazole formulation omitting polyethoxylated castor oil, diluted 1:50 in water) | SMILES
1 | 32 nm | – | – | C=CC[C@@H]1/C=C(\C)C[C@H](C)C[C@H](OC)[C@H]2O[C@@](O)(C(=O)C(=O)N3CCCC[C@H]3C(=O)O[C@H](/C(C)=C/[C@@H]3CC[C@@H](O)[C@H](OC)C3)[C@H](C)[C@@H](O)CC1=O)[C@H](C)C[C@@H]2OC [tacrolimus]
2 | – | 10% | 450 nm | Clc1ccc(C(Cn2ccnc2)OCc2ccsc2Cl)c(Cl)c1 (stereo not drawn) [Tioconazole]
